Laboratory results as given in patent US9695155B2, “Herbicidal substituted pyrimidinyloxy benzene compounds” (E. I. DU PONT DE NEMOURS AND COMPANY, priority 2013, dated 2017).

What was measured:
large (Lg) crabgrass = test: Test C postemergence; format: in vivo, Digitaria sanguinalis; conditions: for Plant response rating (0 to 100), Crabgrass, Large / Crabgrass, Large plant response rating: postemergence; for Crabgrass, Large plant response rating: visual rating; for Crabgrass, Large plant response rating / Plant response rating, Crabgrass, Large: scale 0 to 100 (0 no effect, 100 complete control); for Plant response rating, Crabgrass, Large: Postemergence
How it was run: (§1)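 Seeds are planted in blended loam soil and sand and treated preemergence, while seedlings in a peat moss/vermiculite medium receive postemergence sprays at 2 to 18 cm height. All plants stay in the greenhouse for 13 to 15 days before visual comparison with controls on a 0–100 scale.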

wild oat = test: Test C postemergence; format: in vivo, Avena fatua; conditions: for Plant response rating, Oat, Wild: Postemergence
How it was run: as §1

johnsongrass = test: Test C postemergence; format: in vivo, Sorghum halepense; conditions: for Plant response rating (0 to 100), Johnsongrass / Johnsongrass plant response rating: postemergence; for Johnsongrass plant response rating: visual rating; for Johnsongrass plant response rating / Plant response rating, Johnsongrass: scale 0 to 100 (0 no effect, 100 complete control); for Plant response rating, Johnsongrass: Postemergence
How it was run: as §1

barnyardgrass [1] = test: Test A preemergence; format: in vivo, Echinochloa crus-galli; conditions: for Plant response rating, Barnyardgrass: 125 g ai/ha; for Barnyardgrass plant response rating: 500 g ai/ha
How it was run: (§2)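 Injury scores run from 0, no effect, to 100, complete control, judged by eye against untreated plants roughly 10 days after treatment. Chemicals carried a surfactant in a non-phytotoxic solvent and went onto loam–sand soil preemergence or onto one- to two-leaf seedlings postemergence.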

lambsquarters = test: Test C postemergence; format: in vivo, Chenopodium album; conditions: for Plant response rating, Lambsquarters: Postemergence
How it was run: as §1

oilseed rape = test: Test C postemergence; format: in vivo, Brassica napus; conditions: for Plant response rating, Oilseed Rape: Postemergence
How it was run: as §1

velvetleaf = test: Test A postemergence; format: in vivo, Abutilon theophrasti; conditions: 0 to 100 scale where 0 is no effect and 100 is complete control
How it was run: as §2

waterhemp = test: Test C postemergence; format: in vivo, Amaranthus rudis; conditions: for Plant response rating, Waterhemp: Postemergence
How it was run: as §1

pigweed [2] = test: Test A preemergence; format: in vivo, Amaranthus retroflexus; conditions: for Pigweed plant response rating: 500 g ai/ha
How it was run: as §2

galium = test: Test C postemergence; format: in vivo, Galium aparine; conditions: for Plant response rating (0 to 100), Galium / Galium plant response rating: postemergence; for Galium plant response rating: visual rating; for Galium plant response rating / Plant response rating, Galium: scale 0 to 100 (0 no effect, 100 complete control); for Plant response rating, Galium: Postemergence
How it was run: as §1

wheat = test: Test A preemergence; format: in vivo, Triticum aestivum
How it was run: as §2

giant foxtail = test: Test A preemergence; format: in vivo, Setaria faberii; conditions: for Plant response rating, Foxtail, Giant: 125 g ai/ha; for Foxtail, Giant plant response rating: 500 g ai/ha
How it was run: as §2

blackgrass = test: Test C postemergence; format: in vivo, Alopecurus myosuroides; conditions: for Plant response rating (0 to 100), Blackgrass / Blackgrass plant response rating: postemergence; for Blackgrass plant response rating: visual rating; for Blackgrass plant response rating / Plant response rating, Blackgrass: scale 0 to 100 (0 no effect, 100 complete control); for Plant response rating, Blackgrass: Postemergence
How it was run: as §1

barnyardgrass [3] = test: Test C postemergence; format: in vivo, Echinochloa crus-galli; conditions: for Plant response rating (0 to 100), Barnyardgrass / Barnyardgrass plant response rating: postemergence; for Barnyardgrass plant response rating: visual rating; for Barnyardgrass plant response rating / Plant response rating, Barnyardgrass: scale 0 to 100 (0 no effect, 100 complete control); for Plant response rating, Barnyardgrass: Postemergence
How it was run: as §1

pigweed [4] = test: Test A postemergence; format: in vivo, Amaranthus retroflexus; conditions: 0 to 100 scale where 0 is no effect and 100 is complete control
How it was run: as §2

[5] = 8 g ai/ha, 0 is no effect, 100 is complete control
[6] = 16 g ai/ha, 0 is no effect, 100 is complete control
[7] = 8 g ai/ha, postemergence, 0 is no effect, 100 is complete control
[8] = 16 g ai/ha, postemergence, 0 is no effect, 100 is complete control
[9] = 31 g ai/ha, postemergence, visual rating, scale 0 to 100 (0 no effect, 100 complete control), 13 to 15 days
[10] = 62 g ai/ha, scale 0 to 100 (0 no effect, 100 complete control)
[11] = 0 to 100 scale where 0 is no effect and 100 is complete control
[12] = 31 g ai/ha, scale 0 to 100 (0 no effect, 100 complete control), 13 to 15 days
[13] = 0 to 100 scale, 0 no effect, 100 complete control, approx. 10 days
[14] = 125 g ai/ha, 0 to 100 scale where 0 is no effect and 100 is complete control

Compound: O=Cc1cccc(Oc2ncc(I)cn2)c1-n1cc(Br)cn1 [Compound 172]
- Plant response rating (0 to 100), Crabgrass, Large (large (Lg) crabgrass; [5]): 0
- Plant response rating (0 to 100), Crabgrass, Large (large (Lg) crabgrass; [6]): 0
- Crabgrass, Large plant response rating (large (Lg) crabgrass; 31 g ai/ha, 13 to 15 days): 0
- Plant response rating, Crabgrass, Large (large (Lg) crabgrass; 62 g ai/ha): 0
- Plant response rating (0 to 100), Oat, Wild (wild oat; [7]): 0
- Plant response rating (0 to 100), Oat, Wild (wild oat; [8]): 0
- Oat, Wild plant response rating (wild oat; [9]): 0
- Plant response rating, Oat, Wild (wild oat; [10]): 0
- Plant response rating (0 to 100), Johnsongrass (johnsongrass; [5]): 0
- Plant response rating (0 to 100), Johnsongrass (johnsongrass; [6]): 0
- Johnsongrass plant response rating (johnsongrass; 31 g ai/ha, 13 to 15 days): 10
- Plant response rating, Johnsongrass (johnsongrass; 62 g ai/ha): 10
- Plant response rating, Barnyardgrass (barnyardgrass [1]; [11]): 0
- Barnyardgrass plant response rating (barnyardgrass [1]; [11]): 0
- Plant response rating (0 to 100), Lambsquarters (lambsquarters; [7]): 0
- Plant response rating (0 to 100), Lambsquarters (lambsquarters; [8]): 0
- Lambsquarters plant response rating (lambsquarters; [9]): 0
- Plant response rating, Lambsquarters (lambsquarters; [10]): 0
- Plant response rating (0 to 100), Oilseed Rape (oilseed rape; [7]): 0
- Plant response rating (0 to 100), Oilseed Rape (oilseed rape; [8]): 0
- Oilseed Rape plant response rating (oilseed rape; [9]): 0
- Plant response rating, Oilseed Rape (oilseed rape; [10]): 0
- Velvetleaf plant response rating (velvetleaf; 125 g ai/ha): 90
- Plant response rating, Velvetleaf (velvetleaf; 500 g ai/ha): 100
- Plant response rating (0 to 100), Waterhemp (waterhemp; [7]): 0
- Plant response rating (0 to 100), Waterhemp (waterhemp; [8]): 5
- Waterhemp plant response rating (waterhemp; [9]): 5
- Plant response rating, Waterhemp (waterhemp; [10]): 5
- Pigweed plant response rating (0 to 100 scale) (pigweed [2]; 125 g ai/ha): 0
- Pigweed plant response rating (pigweed [2]; [11]): 50
- Plant response rating (0 to 100), Galium (galium; [5]): 0
- Plant response rating (0 to 100), Galium (galium; [6]): 0
- Galium plant response rating (galium; 31 g ai/ha, 13 to 15 days): 0
- Plant response rating, Galium (galium; 62 g ai/ha): 10
- Wheat plant response rating (0 to 100 scale) (wheat; 125 g ai/ha): 0
- Wheat plant response rating (wheat; 500 g ai/ha, 0 to 100 scale where 0 is no effect and 100 is complete control): 0
- Plant response rating, Foxtail, Giant (giant foxtail; [11]): 0
- Foxtail, Giant plant response rating (giant foxtail; [11]): 0
- Plant response rating (0 to 100), Blackgrass (blackgrass; [5]): 0
- Plant response rating (0 to 100), Blackgrass (blackgrass; [6]): 0
- Blackgrass plant response rating (blackgrass; 31 g ai/ha, 13 to 15 days): 20
- Plant response rating, Blackgrass (blackgrass; 62 g ai/ha): 0
- Plant response rating (0 to 100), Barnyardgrass (barnyardgrass [3]; [5]): 0
- Plant response rating (0 to 100), Barnyardgrass (barnyardgrass [3]; [6]): 5
- Barnyardgrass plant response rating (barnyardgrass [3]; 31 g ai/ha, 13 to 15 days): 5
- Plant response rating, Barnyardgrass (barnyardgrass [3]; 62 g ai/ha): 5
- Pigweed plant response rating (pigweed [4]; 125 g ai/ha): 100
- Plant response rating, Pigweed (pigweed [4]; 500 g ai/ha): 100

Compound: N#Cc1cccc(Oc2ncc(Cl)cn2)c1-n1cc(OC(F)F)cn1 [Compound 97]
- Crabgrass, Large plant response rating (large (Lg) crabgrass; 16 g ai/ha, 13 to 15 days): 5
- Plant response rating (0 to 100), Crabgrass, Large (large (Lg) crabgrass; 125 g ai/ha): 55
- Plant response rating, Crabgrass, Large (large (Lg) crabgrass; 31 g ai/ha, 13 to 15 days): 10
- Plant response rating, Crabgrass, Large (large (Lg) crabgrass; 62 g ai/ha): 15
- Plant response rating (0 to 100), Oat, Wild (wild oat; 125 g ai/ha, postemergence): 25
- Plant response rating, Oat, Wild (wild oat; [12]): 10
- Plant response rating, Oat, Wild (wild oat; [10]): 15
- Johnsongrass plant response rating (johnsongrass; 16 g ai/ha, 13 to 15 days): 5
- Plant response rating (0 to 100), Johnsongrass (johnsongrass; 125 g ai/ha): 5
- Plant response rating, Johnsongrass (johnsongrass; 31 g ai/ha, 13 to 15 days): 5
- Plant response rating, Johnsongrass (johnsongrass; 62 g ai/ha): 15
- Plant response rating, Barnyardgrass (barnyardgrass [1]; [11]): 80
- Barnyardgrass plant response rating (barnyardgrass [1]; [13]): 100
- Plant response rating (0 to 100), Lambsquarters (lambsquarters; 125 g ai/ha, postemergence): 98
- Plant response rating, Lambsquarters (lambsquarters; [12]): 75
- Plant response rating, Lambsquarters (lambsquarters; [10]): 80
- Plant response rating (0 to 100), Oilseed Rape (oilseed rape; 125 g ai/ha, postemergence): 80
- Plant response rating, Oilseed Rape (oilseed rape; [12]): 60
- Plant response rating, Oilseed Rape (oilseed rape; [10]): 80
- Plant response rating, Velvetleaf (velvetleaf; 125 g ai/ha): 100
- Plant response rating, Velvetleaf (velvetleaf; 500 g ai/ha): 100
- Plant response rating (0 to 100), Waterhemp (waterhemp; 125 g ai/ha, postemergence): 95
- Plant response rating, Waterhemp (waterhemp; [12]): 85
- Plant response rating, Waterhemp (waterhemp; [10]): 90
- Plant response rating, Pigweed (pigweed [2]; [14]): 100
- Pigweed plant response rating (pigweed [2]; [13]): 100
- Galium plant response rating (galium; 16 g ai/ha, 13 to 15 days): 55
- Plant response rating (0 to 100), Galium (galium; 125 g ai/ha): 90
- Plant response rating, Galium (galium; 31 g ai/ha, 13 to 15 days): 75
- Plant response rating, Galium (galium; 62 g ai/ha): 85
- Plant response rating, Wheat (wheat; [14]): 0
- Plant response rating, Foxtail, Giant (giant foxtail; [11]): 100
- Foxtail, Giant plant response rating (giant foxtail; [13]): 100
- Blackgrass plant response rating (blackgrass; 16 g ai/ha, 13 to 15 days): 10
- Plant response rating (0 to 100), Blackgrass (blackgrass; 125 g ai/ha): 40
- Plant response rating, Blackgrass (blackgrass; 31 g ai/ha, 13 to 15 days): 5
- Plant response rating, Blackgrass (blackgrass; 62 g ai/ha): 10
- Barnyardgrass plant response rating (barnyardgrass [3]; 16 g ai/ha, 13 to 15 days): 10
- Plant response rating (0 to 100), Barnyardgrass (barnyardgrass [3]; 125 g ai/ha): 15
- Plant response rating, Barnyardgrass (barnyardgrass [3]; 31 g ai/ha, 13 to 15 days): 10
- Plant response rating, Barnyardgrass (barnyardgrass [3]; 62 g ai/ha): 10
- Plant response rating, Pigweed (pigweed [4]; 125 g ai/ha): 100
- Plant response rating, Pigweed (pigweed [4]; 500 g ai/ha): 100
